This note sets out measurements from PubChem BioAssay (NCI).

Holding throughout (assay): NCI-60 cell line screen, 48 h
Experiment [1] deals with MOLT-4 leukemia.
The subject of experiment [2] is PC-3 prostate.
The test system of experiment [3] is TK-10 renal.
The subject of experiment [4] is HOP-92 NSCLC.
Experiment [5] deals with SNB-19 CNS.
Experiment [6] concerns U251 CNS.
Experiment [7] deals with NCI-H460 lung.
Experiment [8] deals with HCT-116 colon.
In experiment [9] the test system is KM12 colon.
Experiment [10] deals with SK-MEL-28 melanoma.

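Following 48 hours of exposure in 96-well plates, responses at five concentrations were used to interpolate endpoints linearly. TGI is the concentration that stops growth completely.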

As for `N#CCCN(CCC#N)c1ccc(C(N=Nc2ccccc2)=Nc2ccc(F)cc2)cc1`, the TGI in [1], in experiment [2], in experiment [3], in experiment [4], in experiment [5] and in [6] was above 100 µM throughout. The TGI in [7], in [8], in experiment [9] and in [10] was above 100 µM in each case.
With `COc1ccc(-c2cc3cc(Cl)cc(Cl)c3oc2=O)cc1OC`, the TGI in experiment [1], in experiment [2], in experiment [3], in [4], in experiment [5] and in experiment [6] was above 100 µM in each case. Besides, the TGI in experiment [7], in experiment [8], in experiment [9] and in [10] was above 100 µM throughout.
For `Cc1cc(-c2ccccc2)nc2oc(=O)n(C)c12`, the TGI in experiment [1], in experiment [2], in experiment [3], in experiment [4], in experiment [5] and in experiment [6] was above 100 µM in each case. Besides, the TGI in [7], in experiment [8], in [9] and in experiment [10] was above 100 µM each time.
In the case of `COc1ccc(C(=O)/C=C/SC(=NC#N)SC)cc1`, the TGI was 58 µM in experiment [1]; above 100 µM in experiment [2]; 42.2 µM in [3]; above 100 µM in [4]; 35.2 µM in experiment [5]; 37.9 µM in [6]. The TGI is above 100 µM in experiment [7], 28.1 µM in experiment [8], 63.9 µM in experiment [9] and 96.7 µM in [10].
For `O=C(Nc1nn(C(=O)c2cccnc2)c(=O)s1)c1ccc(Cl)cc1`, the TGI in [1], in experiment [2], in experiment [3], in experiment [4], in [5] and in experiment [6] was above 100 µM each time. In addition, the TGI in [7], in experiment [8], in experiment [9] and in experiment [10] was above 100 µM each time.
For `CC1=C(C(=O)OCCO[N+](=O)[O-])C(c2ccccc2[N+](=O)[O-])C(C(=O)OC(C)C)=C(C)N1` (stereo not given), the TGI is above 100 µM in experiment [1]; 23.2 µM in experiment [2]; 58.4 µM in [3]; 31.4 µM in experiment [4]; 39.6 µM in experiment [5]; 30 µM in experiment [6]. The TGI in experiment [7] was 34.2 µM; in [8], 29.8 µM; in experiment [9], 28.1 µM; in experiment [10] it was 30.4 µM.
As for `CCOC(=O)N1CCN(c2c(N)nc(C)[nH]c2=O)CC1`, the TGI in [1], in experiment [2], in experiment [3], in experiment [4], in experiment [5] and in [6] was above 100 µM throughout. The TGI in experiment [7], in experiment [8], in [9] and in [10] was above 100 µM each time.
In the case of `CC[C@H](NC(=O)OC(C)(C)C)C(=O)NCP(=O)(OCc1ccc([N+](=O)[O-])cc1)OCc1ccc([N+](=O)[O-])cc1`, the TGI in experiment [1] is above 100 µM; in experiment [2], above 100 µM; in experiment [3], above 100 µM; in [4], above 100 µM; in experiment [5], above 100 µM; in experiment [6], 97.1 µM. The TGI in experiment [7] was above 100 µM; in experiment [8], above 100 µM; in [9] it was above 100 µM; in experiment [10] it was 92.9 µM.
For `CO[P@@]1(=O)O[C@@H](c2ccccc2)[C@H](O)[C@]1(O)c1ccccc1`, the TGI in experiment [1], in experiment [2], in experiment [3], in experiment [4], in experiment [5] and in experiment [6] was above 100 µM each time. In addition, the TGI in [7], in [8], in experiment [9] and in experiment [10] was above 100 µM throughout.
For `OC(CC(O)(C(F)(F)Cl)C(F)(F)Cl)c1ccccc1` (stereo not given), the TGI in [1], in [2], in [3], in [4], in experiment [5] and in experiment [6] was above 10 µM in each case. Moreover, the TGI in [7], in [8], in experiment [9] and in experiment [10] was above 10 µM each time.
On to `CCN(CC)C(=S)N/N=C(/c1ccccc1)c1ccccn1`, for which the TGI in [1] was above 100 µM; in [2], above 100 µM; in experiment [3], 29 µM; in [4], above 100 µM; in experiment [5] it was above 100 µM; in experiment [6], 18.8 µM. Moreover, the TGI in experiment [7] was 0.385 µM; in experiment [8] it was 13.6 µM; in [9], 19.6 µM; in experiment [10], above 79.7 µM.
On to `Cc1c(C(=O)NNc2ccccc2)n2c(=S)[nH]nc2c2ccccc12`, for which the TGI in [1], in [2], in [3], in experiment [4], in [5] and in experiment [6] was above 100 µM in each case. In addition, the TGI in experiment [7], in experiment [8], in experiment [9] and in experiment [10] was above 100 µM each time.
As for `CC(C)=CCC[C@@H](C)C1=C(Nc2ccccc2F)C(O)=C(C)C(=O)C1=O`, the TGI in experiment [1] was above 67.8 µM; in [2], above 100 µM; in experiment [3], above 100 µM; in experiment [4], above 69.9 µM; in [5] it was above 100 µM; in experiment [6], above 31.6 µM. Also, the TGI in [7] was above 100 µM; in [8], above 35.7 µM; in [9] it was 19.4 µM; in [10], above 64.3 µM.
`CCOC(=O)C(NC(=O)c1cccc(Cl)c1)(Nc1cccc(C)c1)C(F)(F)F` (stereo not given): the TGI in [1] was 67.8 µM; in [2], 43.6 µM; in experiment [3], above 100 µM; in [4], 29 µM; in [5], above 100 µM; in experiment [6], 79.3 µM. Further, the TGI in experiment [7] was found to be 47.6 µM; in experiment [8], 33.4 µM; in experiment [9], 30.1 µM; in [10], 35.1 µM.
As to `Cc1ccc(C)c(COCCOCn2cc(N3CCOCC3)c(=O)[nH]c2=O)c1`, the TGI in experiment [1], in experiment [2], in experiment [3], in experiment [4], in experiment [5] and in experiment [6] was above 100 µM in each case. Further, the TGI in experiment [7], in experiment [8], in [9] and in [10] was above 100 µM each time.
Turning to `CSc1ccc(/C=C2\N=C(c3ccccc3)N(c3nc4cc(Cl)c(F)cc4s3)C2=O)cc1`, the TGI was above 100 µM in [1]; above 100 µM in [2]; above 100 µM in experiment [3]; above 100 µM in [4]; 76.6 µM in [5]; 41.7 µM in experiment [6]. The TGI in [7], in experiment [8], in experiment [9] and in [10] was above 100 µM throughout.
As to `CSc1ncc2c(n1)-c1ccccc1OC2NC1CC1` (stereo not given), the TGI in experiment [1], in experiment [2], in experiment [3], in experiment [4], in [5] and in [6] was above 100 µM each time. For the same compound, the TGI in [7], in experiment [8] and in [9] was above 100 µM throughout.
`Cc1nc2c(=O)n(-c3ccccc3)c(=O)n(-c3ccccc3)c2o1`: the TGI in [1], in experiment [2], in [3], in [4], in experiment [5] and in experiment [6] was above 100 µM throughout. The TGI in [7], in experiment [8] and in experiment [9] was above 100 µM in each case.
With `O=C(C(=C(I)I)c1ccccc1)c1ccccc1`, the TGI was 58.1 µM in experiment [1]; above 100 µM in experiment [2]; 83.7 µM in experiment [3]; 82.9 µM in experiment [4]; above 100 µM in [5]; above 100 µM in experiment [7]. For the same compound, the TGI in experiment [8] stood at 36.9 µM; in experiment [10], 94.7 µM.
Consider `Cc1cc(S(=O)(=O)N=C2Nc3cccc4cccc(c34)N2)c(S)cc1Cl`, for which the TGI in experiment [1], in experiment [2], in experiment [4], in experiment [5], in [6] and in experiment [7] was above 100 µM throughout. Moreover, the TGI in experiment [8] is 83.8 µM; in [9] it was above 100 µM; in experiment [10], above 100 µM.
